Patent US6632844B1, “Methods and compositions for preserving glucose level in blood specimens” (Washington University, priority 2000, dated 2003)
Like-named read-outs stand apart in the source and are kept apart here.

How the values were obtained:
heparinized whole blood = settings: for ability to preserve specimen glucose (in words): 10 mmol/L, 8 hours; for Decrease (glucose loss) / Glucose at 8 hours / Glucose at 0 Hours: agent at 10 mmol/L; for Decrease (glucose loss): 0 to 8 hours, no additions 41%; for Glucose at 8 hours: 8 hours at room temperature; for Glucose at 8 hours / Glucose at 0 Hours: mean(SD); for IC50: read-out: concentration that reduced glycolytic loss by half, 8 hours incubation at room temperature
Excerpt: Whole blood specimens collected in tubes containing sodium heparin as anticoagulant were obtained from healthy adult volunteers or from adult diabetic patients visiting an outpatient clinic, after obtaining informed consent. Specimens were employed for experimentation within one hour of collection. In a few experiments, whole blood heparinized specimens arriving at the clinical laboratory for analysis for glucose and other common analytes were mixed, and aliquots removed for experimental purposes. These studies were conducted in accordance with a protocol approved by the Human Studies Committee of Washington University.
Aliquots of heparinized whole blood (0.96 mL) were pipetted into microfuge tubes containing 0.040 mL of saline or anti-glycolytic agent in saline. Anti-glycolytic agents were prepared as 250 mmol/L stock solutions within one hour of use. At various times plasma was prepared from incubations by centrifugation at 8000×G for two minutes; plasma was decanted to 12×75 mm tubes and stored frozen until analysis. All incubations of whole blood were conducted at room temperature (23°) on a rotating table shaker, which kept the cells in dispersed suspension. d,1-glyceraldehyde, methylgloxal, d-glyceraldehyde, glycolaldehyde and dihydroxyacetone were obtained from Sigma Chem Co. (St. Louis, Mo.). 1-glyceraldehyde was obtained from Fisher Scientific (Pittsburgh, Pa.).
Glucose analyses were routinely performed on a Cobas-MIRA analyzer (Roche Diagnostic Systems, Montclair, N.J.), employing reagents based on glucose oxidase, manufactured by Sigma Diagnostics (St. Louis, Mo.). In some experiments, glucose and many other common laboratory analyses were performed on a Vitros 250 Analyzer (Ortho-Clinical Diagnostics, Rochester, N.Y.), a Hitachi 747 Analyzer (Boehringer-Mannheim Corp., Indianapolis, Ind.) and a RxL Analyzer (Dade Behring, Inc. Newark, Del.).
Whole heparinized blood was incubated for 0-8 hours in the presence of 10 mmol/L d,1-GA, and the glycolytic loss of glucose followed over time (FIG. 1).
Whole heparinized blood was incubated for 8 hours in the presence of 0-10 mmol/L d,1-GA (FIG. 2).
Several compounds related biochemically or structurally to d,1-GA were tested for ability to preserve specimen glucose; incubations without inhibitor and with d,1-GA were included for comparison (Table I). All compounds were tested at a final concentration of 10 mmol/L, and incubations were conducted at 0 hours and 8 hours for each compound. […] To test this possibility, an experiment varying the concentration of 1-GA was performed in analogy with the earlier experiment varying the d,1-GA concentration (see above).

[1] = test system: patient whole blood specimens; assay: Efficacy of d,1-GA in patient specimens: initial glucose vs glucose after 8 hours incubation; format: cell-based, human; settings: 10 mmol/L d,1-GA
Excerpt: Results are presented by plotting initial glucose concentration against glucose concentrations either in the presence or absence of d,1-GA (FIG. 3).

[2] = test system: erythrocyte potassium homeostasis; assay: Effect on erythrocyte potassium homeostasis (plasma potassium in whole blood incubations); format: cell-based, human; settings: 10 mmol/L d,1-GA; room temperature; 4.0±0 mmol/L at 0 hours
Method: 1-glyceraldehyde was obtained from Fisher Scientific (Pittsburgh, Pa.).
The time course of potassium concentration changes was followed for 8 hours in whole blood incubations under three conditions; 1) incubation at room temperature (without additions), 2) incubation at room temperature with 10 mmol/L d,1-GA, and 3) incubation at 4° C. (without additions). In room temperature incubations without additive, potassium decreased modestly from 4.0±0 mmol/L at 0 hours to 3.5±0.1 mmol/L at 8 hours. Incubation for 8 hours in the presence of d,1-GA caused an increase of similar magnitude (to 4.5±0 mmol/L). In contrast, incubation at 4° C., which has been advocated as an effective way to prevent glucose loss for short periods (Lin et al., Clin. Chem., 22:2031-3 (1976)), caused an increase to 6.0±0.1 mmol/L.

SMILES | ability to preserve specimen glucose (in words) (heparinized whole blood) | Decrease (glucose loss) (heparinized whole blood) | Glucose at 8 hours (heparinized whole blood) | Glucose at 0 Hours (heparinized whole blood) | reduction of the extent of glucose loss compared with absence of d,1-GA [1] | plasma potassium at 8 hours [2] | residual glucose at 8 hours (heparinized whole blood; 5 mmol/L d,1-GA, start 4.8±0.1 mmol/L, FIG. 2) | loss of glucose at 8 hours (heparinized whole blood; 10 mmol/L d,1-GA, FIG. 1, without additive 38% lost) | IC50 (heparinized whole blood) | hemolysis (heparinized whole blood; whole blood incubation with additive) | hemolysis (heparinized whole blood) | elimination of glycolytic loss (in words) (heparinized whole blood; 2.5 mmol/L 1-GA, 8 hour incubation, data not shown)
CC(=O)C=O [Methylglyoxal, reference compound] | ineffective | 43% | 2.6(0.2) mmol/L | 4.5(1.0) mmol/L | – | – | – | – | – | – | – | –
O=CCO [Glycolaldehyde, reference compound] | – | 52% | 2.3(0.1) mmol/L | 4.8(0.1) mmol/L | – | – | – | – | – | – | – | –
O=CC(O)CO (stereo not shown) [d,1-GA, d,1-glyceraldehyde] | – | 0% | 4.8(0.1) mmol/L | 4.7(0.2) mmol/L | more than 7 fold | 4.5 ± 0 mmol/L | 4.6 ± 0.3 mmol/L | 2% | ~900 µM | did not promote visible hemolysis | – | –
O=C(CO)[C@@H](O)[C@H](O)[C@@H](O)CO [L-Sorbose, reference compound] | not effective | 38% | 3.1(0) mmol/L | 5.0(0.1) mmol/L | – | – | – | – | – | – | – | –
O=C[C@H](O)CO [d-GA, d-glyceraldehyde] | only partly effective | 17% | 3.9(0.1) mmol/L | 4.7(0.1) mmol/L | – | – | – | – | – | – | – | –
O=C[C@@H](O)CO [1-GA, 1-glyceraldehyde] | completely prevented | 0% | 4.8(0.1) mmol/L | 4.8(0.1) mmol/L | – | – | – | – | ~650 µM | – | does not cause hemolysis | nearly completely effective
O=C(O)C(O)CO (stereo not shown) [Glyceric Acid, reference compound] | – | 42% | 2.7(0.2) mmol/L | 4.7(0.1) mmol/L | – | – | – | – | – | – | – | –
